Data as given in patent publication US20260356819A1, “OXOISOINDOLINYL-SUBSTITUTED […] DERIVATIVE AND USE THEREOF” (GLUETACS THERAPEUTICS (SHANGHAI) CO., LTD., priority 2023, published 2026).

Tests used:
WEE1 = target: T1, WEE1 (Homo sapiens, UniProt P30291+Q96SW2); experiment: Western blot degradation of WEE1 in hPBMCs (24 h); type: cell-based; details: compounds at 50 nM and 500 nM
T1 construct: The supernatant was aspirated as the extracted total cell protein; endogenous in cells; host or cells: human peripheral blood mononuclear cells (hPBMCs)
Method in brief: (§1)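 Compounds were tested at 50 nM and 500 nM on hPBMCs (1×10^6 cells/mL) for 24 h, alongside DMSO. Proteins were detected by Western blot after denaturation at 95 °C; remaining protein computed from normalised band grayscale.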

MGC803 cells = experiment: Inhibition of proliferation of gastric cancer cells MGC803 (cell viability assay, 96 h); type: cell-based, human; details: read-out: inhibitory activity (IC50) against tumor cells proliferation, MGC803
Description: (§2) The tumor cells used herein were cultured in a cell culture medium listed in table 2 at 37 °C in an incubator with 5% CO2. Prior to experimentation, all cell lines used were correctly identified by STR profiling, and tested negative for Mycoplasma contamination using a Mycoplasma detection kit through routine screenings.
(§3) The IC50 values of the compounds of the present disclosure (including the compounds in Table 1, and Examples 1-498) were determined using the CellTiter-Meiluncell Luminescent Cell Viability Assay Kit from Dalian Meilun Biotech Co., Ltd. The detailed procedure is as follows: Tumor cells were seeded in 96-well cell culture plates at the densities specified in Table 3. On the following day, the test compounds of the present disclosure were subjected to serial dilution. […] Subsequently, 0.5 μL of the test compound dilution was transferred into the 96-well plate containing the cells, with each well containing 100 μL of cell culture medium. […] Into the 96-well plate, the diluted test compounds and corresponding detection reagents were added, resulting in final test compound concentrations of 500 nM and 10 nM, respectively. The experimental procedure is described below using the diluted 2 μM test compound as an example.
(§4) 0.5 μL of the aforementioned diluted compound of the present disclosure (including the compounds in Table 1, and Examples 1-498) was added to the seeded cells in 100 μL of medium, yielding a final test compound concentration of 10 nM. After the cells were treated with the compounds of the present disclosure for a specified period, the cell viability assay reagent was added to the culture medium according to the kit's instructions to determine cell viability. […] All controls were treated using the same procedure as the compounds of the present disclosure. The growth inhibition curves for the compounds of the present disclosure were plotted using Prism GraphPad software, and the IC50 values were calculated therefrom.

IKZF3 = target: T2, IKZF3 (Homo sapiens, UniProt Q96SW2+Q9UKT9); experiment: Western blot degradation of IKZF3 in hPBMCs (24 h); type: cell-based; details: compounds at 50 nM and 500 nM
T2 construct: The supernatant was aspirated as the extracted total cell protein; endogenous in cells; host or cells: human peripheral blood mononuclear cells (hPBMCs)
Method in brief: as §1

MM.1S cells = experiment: Inhibition of proliferation of multiple myeloma cells MM.1S (cell viability assay, 96 h); type: cell-based, human; details: read-out: inhibitory activity (IC50) against tumor cells proliferation, MM.1S
IKZF2 = target: T3, IKZF2 (Homo sapiens, UniProt Q96SW2+Q9UKS7); experiment: Western blot degradation of IKZF2 in hPBMCs (24 h); type: cell-based; details: compounds at 50 nM and 500 nM
T3 construct: The supernatant was aspirated as the extracted total cell protein; endogenous in cells; host or cells: human peripheral blood mononuclear cells (hPBMCs)
Method in brief: as §1

GSPT1 = target: T4, GSPT1 (Homo sapiens, UniProt P15170+Q96SW2); experiment: Western blot degradation of GSPT1 in hPBMCs (24 h); type: cell-based; details: compounds at 50 nM and 500 nM
T4 construct: The supernatant was aspirated as the extracted total cell protein; endogenous in cells; host or cells: human peripheral blood mononuclear cells (hPBMCs)
Method in brief: as §1

CK1α = target: T5, CK1α (Homo sapiens, UniProt P48729+Q96SW2); experiment: Western blot degradation of CK1α in hPBMCs (24 h); type: cell-based; details: compounds at 50 nM and 500 nM
T5 construct: The supernatant was aspirated as the extracted total cell protein; endogenous in cells; host or cells: human peripheral blood mononuclear cells (hPBMCs)
Method in brief: as §1

IKZF1 = target: T6, IKZF1 (Homo sapiens, UniProt Q13422+Q96SW2); experiment: Western blot degradation of IKZF1 in hPBMCs (24 h); type: cell-based; details: compounds at 50 nM and 500 nM
T6 construct: The supernatant was aspirated as the extracted total cell protein; endogenous in cells; host or cells: human peripheral blood mononuclear cells (hPBMCs)
Method in brief: as §1

Jurkat cells = experiment: Inhibition of proliferation of T lymphocytic leukemia cells Jurkat (cell viability assay, 96 h); type: cell-based, human; details: read-out: inhibitory activity (IC50) against tumor cells proliferation, Jurkat
Description: as §2, §3, §4

MV-4-11 cells = experiment: Inhibition of proliferation of myeloid monocytic leukemia cells MV-4-11 (cell viability assay, 96 h); type: cell-based, human; details: read-out: inhibitory activity (IC50) against tumor cells proliferation, MV-4-11
Description: as §2, §3, §4

T6 sequence (Q13422 whole entry): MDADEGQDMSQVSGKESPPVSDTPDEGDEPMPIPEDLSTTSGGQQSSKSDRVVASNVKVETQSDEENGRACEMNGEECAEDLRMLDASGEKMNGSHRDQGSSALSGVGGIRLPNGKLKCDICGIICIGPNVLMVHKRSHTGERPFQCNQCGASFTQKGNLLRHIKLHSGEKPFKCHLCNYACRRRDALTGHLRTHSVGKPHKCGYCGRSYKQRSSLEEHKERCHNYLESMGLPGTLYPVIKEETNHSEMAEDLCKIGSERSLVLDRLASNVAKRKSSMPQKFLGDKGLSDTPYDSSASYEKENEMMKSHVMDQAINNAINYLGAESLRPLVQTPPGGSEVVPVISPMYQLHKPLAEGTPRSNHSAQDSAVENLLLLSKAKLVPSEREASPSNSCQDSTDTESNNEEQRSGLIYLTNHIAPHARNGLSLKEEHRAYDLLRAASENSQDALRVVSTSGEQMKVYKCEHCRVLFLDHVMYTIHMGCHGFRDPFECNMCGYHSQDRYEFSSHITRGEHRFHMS
T6 sequence (Q96SW2 whole entry): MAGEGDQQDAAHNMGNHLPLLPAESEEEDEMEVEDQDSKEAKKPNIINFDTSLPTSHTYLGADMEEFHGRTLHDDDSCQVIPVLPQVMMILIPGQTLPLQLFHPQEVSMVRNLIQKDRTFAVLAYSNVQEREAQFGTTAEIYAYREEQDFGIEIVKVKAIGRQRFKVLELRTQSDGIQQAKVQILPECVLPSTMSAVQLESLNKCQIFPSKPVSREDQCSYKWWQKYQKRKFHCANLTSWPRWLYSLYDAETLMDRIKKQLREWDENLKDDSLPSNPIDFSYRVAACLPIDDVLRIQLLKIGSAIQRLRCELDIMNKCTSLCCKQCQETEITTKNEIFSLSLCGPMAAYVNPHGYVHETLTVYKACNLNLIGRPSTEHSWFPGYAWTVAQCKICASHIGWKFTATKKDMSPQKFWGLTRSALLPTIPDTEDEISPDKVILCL
T6 sequence (Q16531 whole entry partner): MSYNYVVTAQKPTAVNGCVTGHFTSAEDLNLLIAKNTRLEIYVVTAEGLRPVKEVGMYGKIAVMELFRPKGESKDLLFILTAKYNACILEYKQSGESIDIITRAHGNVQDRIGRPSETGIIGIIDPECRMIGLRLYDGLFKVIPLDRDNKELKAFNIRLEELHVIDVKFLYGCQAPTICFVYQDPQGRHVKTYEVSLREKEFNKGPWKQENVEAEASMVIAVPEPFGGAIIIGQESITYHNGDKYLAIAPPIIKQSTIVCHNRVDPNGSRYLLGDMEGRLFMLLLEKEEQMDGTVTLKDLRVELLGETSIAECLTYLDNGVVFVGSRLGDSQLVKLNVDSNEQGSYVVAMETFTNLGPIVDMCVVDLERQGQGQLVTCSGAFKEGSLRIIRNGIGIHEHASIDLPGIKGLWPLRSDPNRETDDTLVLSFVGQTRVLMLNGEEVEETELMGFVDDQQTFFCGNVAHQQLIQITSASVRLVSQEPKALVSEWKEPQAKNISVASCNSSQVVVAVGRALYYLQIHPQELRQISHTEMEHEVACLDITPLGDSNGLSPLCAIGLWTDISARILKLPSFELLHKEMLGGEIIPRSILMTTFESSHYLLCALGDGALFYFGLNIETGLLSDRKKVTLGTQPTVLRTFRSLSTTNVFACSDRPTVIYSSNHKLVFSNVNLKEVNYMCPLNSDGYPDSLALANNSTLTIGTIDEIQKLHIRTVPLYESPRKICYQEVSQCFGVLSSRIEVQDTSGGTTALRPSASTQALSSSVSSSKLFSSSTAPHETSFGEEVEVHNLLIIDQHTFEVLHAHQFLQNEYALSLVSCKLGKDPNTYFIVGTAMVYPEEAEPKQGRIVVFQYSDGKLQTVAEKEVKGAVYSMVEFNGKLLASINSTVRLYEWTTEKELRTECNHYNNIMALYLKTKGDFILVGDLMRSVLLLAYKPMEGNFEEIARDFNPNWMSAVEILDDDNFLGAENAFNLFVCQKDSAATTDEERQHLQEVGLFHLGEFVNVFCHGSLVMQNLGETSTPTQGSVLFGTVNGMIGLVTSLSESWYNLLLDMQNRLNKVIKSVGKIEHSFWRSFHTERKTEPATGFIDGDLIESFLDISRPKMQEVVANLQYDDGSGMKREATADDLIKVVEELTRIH
T1 sequence (P30291 whole entry): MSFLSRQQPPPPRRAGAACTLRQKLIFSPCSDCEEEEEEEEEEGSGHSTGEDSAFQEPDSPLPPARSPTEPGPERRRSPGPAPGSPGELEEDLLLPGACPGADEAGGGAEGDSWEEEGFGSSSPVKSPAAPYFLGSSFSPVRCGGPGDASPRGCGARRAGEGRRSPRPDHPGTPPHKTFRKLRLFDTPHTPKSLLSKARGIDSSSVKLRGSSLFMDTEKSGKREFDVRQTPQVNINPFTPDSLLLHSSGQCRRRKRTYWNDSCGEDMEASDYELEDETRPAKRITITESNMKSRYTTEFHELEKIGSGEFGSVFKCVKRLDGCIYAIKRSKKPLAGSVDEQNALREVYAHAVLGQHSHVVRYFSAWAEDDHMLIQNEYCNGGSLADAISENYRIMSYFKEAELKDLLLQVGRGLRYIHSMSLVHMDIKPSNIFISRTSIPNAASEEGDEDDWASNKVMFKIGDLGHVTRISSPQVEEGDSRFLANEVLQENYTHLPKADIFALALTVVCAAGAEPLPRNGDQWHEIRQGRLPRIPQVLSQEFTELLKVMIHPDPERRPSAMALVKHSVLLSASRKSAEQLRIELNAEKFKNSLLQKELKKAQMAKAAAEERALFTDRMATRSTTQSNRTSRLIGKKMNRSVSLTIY
T1 sequence (Q96SW2 whole entry): as the sequence (Q96SW2 whole entry) above
T1 sequence (Q16531 whole entry partner): as the sequence (Q16531 whole entry partner) above
T2 sequence (Q9UKT9 whole entry): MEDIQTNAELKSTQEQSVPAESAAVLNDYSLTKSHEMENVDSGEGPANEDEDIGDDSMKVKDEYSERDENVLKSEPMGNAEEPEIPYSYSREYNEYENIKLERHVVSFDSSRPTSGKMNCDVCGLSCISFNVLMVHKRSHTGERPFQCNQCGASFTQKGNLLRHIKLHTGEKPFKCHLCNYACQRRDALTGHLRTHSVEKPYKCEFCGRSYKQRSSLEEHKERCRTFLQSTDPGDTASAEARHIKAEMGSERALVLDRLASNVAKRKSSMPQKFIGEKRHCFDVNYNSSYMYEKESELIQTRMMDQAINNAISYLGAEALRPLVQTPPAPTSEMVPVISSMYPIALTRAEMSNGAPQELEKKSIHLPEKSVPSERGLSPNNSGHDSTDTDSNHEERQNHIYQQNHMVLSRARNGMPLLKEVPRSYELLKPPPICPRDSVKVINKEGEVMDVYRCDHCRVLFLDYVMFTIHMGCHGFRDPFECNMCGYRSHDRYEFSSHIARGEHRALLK
T2 sequence (Q96SW2 whole entry): as the sequence (Q96SW2 whole entry) above
T2 sequence (Q16531 whole entry partner): as the sequence (Q16531 whole entry partner) above
T4 sequence (P15170 whole entry): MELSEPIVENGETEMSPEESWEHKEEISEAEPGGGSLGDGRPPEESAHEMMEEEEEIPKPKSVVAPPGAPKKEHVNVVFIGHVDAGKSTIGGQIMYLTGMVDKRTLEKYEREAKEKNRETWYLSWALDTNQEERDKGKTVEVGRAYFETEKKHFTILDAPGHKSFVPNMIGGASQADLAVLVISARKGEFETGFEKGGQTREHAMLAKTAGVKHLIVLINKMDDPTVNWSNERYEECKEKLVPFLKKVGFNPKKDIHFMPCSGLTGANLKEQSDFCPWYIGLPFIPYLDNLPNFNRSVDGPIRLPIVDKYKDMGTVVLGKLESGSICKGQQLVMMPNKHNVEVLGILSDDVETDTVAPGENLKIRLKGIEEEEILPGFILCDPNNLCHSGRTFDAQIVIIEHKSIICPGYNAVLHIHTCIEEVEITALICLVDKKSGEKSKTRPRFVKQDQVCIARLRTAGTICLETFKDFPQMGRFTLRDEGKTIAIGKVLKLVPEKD
T4 sequence (Q96SW2 whole entry): as the sequence (Q96SW2 whole entry) above
T4 sequence (Q16531 whole entry partner): as the sequence (Q16531 whole entry partner) above
T5 sequence (P48729 whole entry): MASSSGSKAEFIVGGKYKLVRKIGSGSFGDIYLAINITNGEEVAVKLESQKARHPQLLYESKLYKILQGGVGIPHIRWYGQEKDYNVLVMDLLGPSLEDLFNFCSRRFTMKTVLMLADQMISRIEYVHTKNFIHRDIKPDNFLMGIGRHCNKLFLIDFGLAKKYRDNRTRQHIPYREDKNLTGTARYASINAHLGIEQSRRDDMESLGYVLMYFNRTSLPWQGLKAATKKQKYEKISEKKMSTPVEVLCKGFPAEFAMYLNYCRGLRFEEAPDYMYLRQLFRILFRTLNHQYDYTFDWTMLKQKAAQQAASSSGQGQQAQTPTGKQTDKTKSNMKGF
T5 sequence (Q96SW2 whole entry): as the sequence (Q96SW2 whole entry) above
T5 sequence (Q16531 whole entry partner): as the sequence (Q16531 whole entry partner) above

SMILES	WEE1 substrate protein remaining % (WEE1)	IC50 (MGC803 cells)	IKZF3 substrate protein remaining % (IKZF3)	IC50 (MM.1S cells)	IKZF2 substrate protein remaining % (IKZF2)	GSPT1 substrate protein remaining % (GSPT1)	CK1α substrate protein remaining % (CK1α)	IKZF1 substrate protein remaining % (IKZF1)	IC50 (Jurkat cells)	IC50 (MV-4-11 cells)
O=C1CCN(N2Cc3cc(CN4CCN(c5cccc(Cl)c5Cl)CC4)ccc3C2=O)C(=O)N1 [GT-04853, 1-(5-((4-(2,3-dichlorophenyl)piperazin-1-yl)methyl)-1-oxoisoindolin-2-yl)dihydropyrimidine-2,4(1H,3H)-dione]	A (0% ≤ substrate protein remaining % ≤80%)	500 to 1000 nM	B (80%< substrate protein remaining % ≤100%)	100 to 300 nM	A (0% ≤ substrate protein remaining % ≤80%)	A (0% ≤ substrate protein remaining % ≤80%)	B (80%< substrate protein remaining % ≤100%)	A (0% ≤ substrate protein remaining % ≤80%)	–	–
O=C1CCN(N2Cc3cc(CN4CCN(c5cccc6sccc56)CC4)ccc3C2=O)C(=O)N1 [GT-04866, 1-(5-((4-(benzo[b]thiophen-4-yl)piperazin-1-yl)methyl)-1-oxoisoindolin-2-yl)dihydropyrimidine-2,4(1H,3H)-dione]	A (0% ≤ substrate protein remaining % ≤80%)	300 to 500 nM	B (80%< substrate protein remaining % ≤100%)	100 to 300 nM	B (80%< substrate protein remaining % ≤100%)	A (0% ≤ substrate protein remaining % ≤80%)	B (80%< substrate protein remaining % ≤100%)	A (0% ≤ substrate protein remaining % ≤80%)	300 to 500 nM	–
O=C1CCN(N2Cc3cc(CN4CCN(C(c5ccccc5)c5ccccn5)CC4)ccc3C2=O)C(=O)N1 (stereo not drawn) [GT-04890, 1-(1-oxo-5-((4-(phenyl(pyridin-2-yl)methyl)piperazin-1-yl)methyl)isoindolin-2-yl)dihydropyrimidine-2,4(1H,3H)-dione]	B (80%< substrate protein remaining % ≤100%)	500 to 1000 nM	B (80%< substrate protein remaining % ≤100%)	100 to 300 nM	A (0% ≤ substrate protein remaining % ≤80%)	A (0% ≤ substrate protein remaining % ≤80%)	B (80%< substrate protein remaining % ≤100%)	A (0% ≤ substrate protein remaining % ≤80%)	–	–
Cc1cccc(N2CCN(Cc3ccc4c(c3)CN(N3CCC(=O)NC3=O)C4=O)CC2)c1 [GT-06770, 1-(1-oxo-5-((4-(m-tolyl)piperazin-1-yl)methyl)isoindolin-2-yl)dihydropyrimidine-2,4(1H,3H)-dione]	A (0% ≤ substrate protein remaining % ≤80%)	–	A (0% ≤ substrate protein remaining % ≤80%)	–	A (0% ≤ substrate protein remaining % ≤80%)	A (0% ≤ substrate protein remaining % ≤80%)	A (0% ≤ substrate protein remaining % ≤80%)	A (0% ≤ substrate protein remaining % ≤80%)	500 to 1000 nM	500 to 1000 nM
O=C1CCN(N2Cc3cc(CN4CCN(c5cc(Cl)cc(Cl)c5)CC4)ccc3C2=O)C(=O)N1 [GT-06776, 1-(5-((4-(3,5-dichlorophenyl)piperazin-1-yl)methyl)-1-oxoisoindolin-2-yl)dihydropyrimidine-2,4(1H,3H)-dione]	A (0% ≤ substrate protein remaining % ≤80%)	–	B (80%< substrate protein remaining % ≤100%)	–	A (0% ≤ substrate protein remaining % ≤80%)	A (0% ≤ substrate protein remaining % ≤80%)	A (0% ≤ substrate protein remaining % ≤80%)	B (80%< substrate protein remaining % ≤100%)	500 to 1000 nM	100 to 300 nM
O=C1CCN(N2Cc3cc(CN4CCC(c5ccccc5)CC4)ccc3C2=O)C(=O)N1 [GT-06884, 1-(1-oxo-5-((4-phenylpiperidin-1-yl)methyl)isoindolin-2-yl)dihydropyrimidine-2,4(1H,3H)-dione]	B (80%< substrate protein remaining % ≤100%)	–	B (80%< substrate protein remaining % ≤100%)	–	B (80%< substrate protein remaining % ≤100%)	A (0% ≤ substrate protein remaining % ≤80%)	B (80%< substrate protein remaining % ≤100%)	B (80%< substrate protein remaining % ≤100%)	–	500 to 1000 nM
O=C1CCN(N2Cc3cc(CN4CCC(c5cccc(Br)c5)CC4)ccc3C2=O)C(=O)N1 [GT-06885, 1-(5-((4-(3-bromophenyl)piperidin-1-yl)methyl)-1-oxoisoindolin-2-yl)dihydropyrimidine-2,4(1H,3H)-dione]	B (80%< substrate protein remaining % ≤100%)	–	B (80%< substrate protein remaining % ≤100%)	–	A (0% ≤ substrate protein remaining % ≤80%)	A (0% ≤ substrate protein remaining % ≤80%)	B (80%< substrate protein remaining % ≤100%)	A (0% ≤ substrate protein remaining % ≤80%)	–	100 to 300 nM
O=C1CCN(N2Cc3cc(CN4CCC(c5cccc(C(F)(F)F)c5)CC4)ccc3C2=O)C(=O)N1 [GT-06892, 1-(1-oxo-5-((4-(3-(trifluoromethyl)phenyl)piperidin-1-yl)methyl)isoindolin-2-yl)dihydropyrimidine-2,4(1H,3H)-dione]	B (80%< substrate protein remaining % ≤100%)	–	B (80%< substrate protein remaining % ≤100%)	–	A (0% ≤ substrate protein remaining % ≤80%)	A (0% ≤ substrate protein remaining % ≤80%)	B (80%< substrate protein remaining % ≤100%)	A (0% ≤ substrate protein remaining % ≤80%)	–	500 to 1000 nM
O=C1CCN(N2Cc3cc(CN4CCC(c5cccc(Cl)c5Cl)CC4)ccc3C2=O)C(=O)N1 [GT-06893, 1-(5-((4-(2,3-dichlorophenyl)piperidin-1-yl)methyl)-1-oxoisoindolin-2-yl)dihydropyrimidine-2,4(1H,3H)-dione]	B (80%< substrate protein remaining % ≤100%)	–	B (80%< substrate protein remaining % ≤100%)	–	A (0% ≤ substrate protein remaining % ≤80%)	A (0% ≤ substrate protein remaining % ≤80%)	B (80%< substrate protein remaining % ≤100%)	A (0% ≤ substrate protein remaining % ≤80%)	500 to 1000 nM	100 to 300 nM
O=C1CCN(N2Cc3cc(CN4CCC(c5cccc(F)c5Cl)CC4)ccc3C2=O)C(=O)N1 [GT-06894, 1-(5-((4-(2-chloro-3-fluorophenyl)piperidin-1-yl)methyl)-1-oxoisoindolin-2-yl)dihydropyrimidine-2,4(1H,3H)-dione]	B (80%< substrate protein remaining % ≤100%)	–	B (80%< substrate protein remaining % ≤100%)	–	B (80%< substrate protein remaining % ≤100%)	A (0% ≤ substrate protein remaining % ≤80%)	B (80%< substrate protein remaining % ≤100%)	A (0% ≤ substrate protein remaining % ≤80%)	500 to 1000 nM	300 to 500 nM
